Results taken from US6903132B2, “Non-peptide GnRH agents, pharmaceutical compositions and methods for their use” (Agouron Pharmaceuticals, Inc., priority 2002, dated 2005).

biological target: T1, human GnRH receptors (Homo sapiens, UniProt P30968); test: Radioligand binding assay: inhibition of binding of 125I-GnRH-A to GnRH receptors (membranes); settings: Human GnRH receptor; competition with 125I-GnRH-A; Ki calculated from IC50 (Cheng et al.)
T1 construct: expressed in transfected cells; host or cells: HEK 293
T1 sequence (P30968 1-328): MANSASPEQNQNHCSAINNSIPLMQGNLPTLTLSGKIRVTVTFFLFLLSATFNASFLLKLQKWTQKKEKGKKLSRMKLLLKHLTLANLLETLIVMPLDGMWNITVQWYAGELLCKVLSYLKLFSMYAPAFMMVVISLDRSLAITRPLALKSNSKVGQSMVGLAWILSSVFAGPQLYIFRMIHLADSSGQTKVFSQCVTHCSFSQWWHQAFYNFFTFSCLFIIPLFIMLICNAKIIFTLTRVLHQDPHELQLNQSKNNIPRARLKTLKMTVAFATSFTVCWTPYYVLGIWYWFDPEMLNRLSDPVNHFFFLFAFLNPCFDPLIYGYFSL
Description: HEK 293 cells stably transfected with mouse or human GnRH receptors as described above are grown in Dulbecco's high-glucose, modified Eagle's medium (DMEM) supplemented with 0.2% G418, 10% fetal bovine serum (FBS) and 100U/mL penicillin/streptomycin. GH3 cells stably transfected with the rat GnRH receptor (GGH3) were provided by Dr. William Chin (Harvard Medical School, Boston, Mass.). These cells are extensively characterized previously (Kaiser et al., 1997). The cells are grown in low glucose DMEM containing: 100U/mL penicillin/streptomycin, 0.6% G418 and 10% heat-inactivated FBS.
HEK 293 cells containing mouse or human receptors, or rat pituitaries (Pel Freez Biologicals, Rogers, Ark.) are homogenized in buffer A containing: 50 mM Tris (pH 7.4), 0.32 M sucrose, 2 mM EGTA, 1 mM PMSF, 5 μg/ml aprotinen, 5 μg/ml Pepstatin A, and 1 μg/ml leupeptin. Homogenized cells are centrifuged at 4° C. at 20,000×g for 25 minutes, re-suspended in buffer A and re-centrifuged at 4° C. at 20,000×g for an additional 25 minutes. Total membrane protein was determined with a BCA kit (Pierce, Rockford, Ill.). Membranes are stored at −70° C. at a final membrane protein concentration of approximately 5 mg/ml.
The radioiodinated agonist analog of GnRH, [des-Gly^10, D-Ala^6]GnRH ethylamide (^125I-GnRH-A), is used as the radioligand. One μg of GnRH-A diluted in 0.5 M phosphate buffer (pH 7.4) is added to an lodogen®-coated borosilicate glass tube (Pierce, Rockford, Ill.) containing 35 μl of 0.05 M phosphate buffer (pH 7.4-7.6) and 1 mCi of Na[^125I]. The reaction mixture is vortexed and incubated for 1 minute at room temperature. After one minute, the mixture is vortexed and allowed to incubate for an additional minute. 2 ml of 0.5 M acetic acid/1% BSA is added to the reaction tube and the mixture is added to a C18 Sep-Pak cartridge. The cartridge is washed with subsequent washes of 5 ml H2O and 5 ml 0.5 M acetic acid and then eluted with 5×1 ml of 60%CH3CN/40% 0.5 M acetic acid. The eluate is diluted with 3× volume of HPLC buffer A (0.1% TFA in H2O) and loaded onto a C18 column. The iodinated product is eluted over 20-25 min with a gradient of 25-100% CH3CN containing 0.1% TFA. The radioactive fractions (750 μl/fraction) are collected into clean polypropylene tubes containing 100 μl of 10% BSA. Fractions are assessed for biological activity by radiolig and binding. Specific activity of the radioligand was approximately 2200 Ci/mmol.
Membranes are diluted to 0.01-0.5 mg/ml (depending upon the species of receptor) with assay buffer containing 50 mM HEPES (pH 7.4), 1 mM EDTA, 2.5 mM MgCl2, and 0.1% BSA. Membranes (diluted to utilize similar receptor numbers between assays) are incubated with approximately 0.04-0.06 nM ^125I-GnRH-A in the presence or absence of competing agents (0.1-10,000 nM) in a total volume of 200 μl in 96-well polypropylene plates for 1 hour at room temperature. Assays are stopped by rapid filtration onto 96-well GF/C filters soaked in 0.1% polyethylenimine (PEI) utilizing a Packard 96-well cell harvester. Filters are washed three times with ice-cold PBS (50 mM NaPO4, 0.9% NaCl, 2 mM MgCl2, and 0.02% NaN3, pH 7.4). 35 μl of scintillation cocktail is added to each filter well and filters are counted on a Packard Topcount. Control dose-response curves are generated to GnRH (0.1 nM-100 nM) in each competition binding experiment. Ki values were calculated from IC50 values according to Cheng et al., Biochemical Pharmacol. 22: 3099-3108, 1973. [formula]

Which Ki does the source give for Cc1cc(C)cc(NNC(=O)c2ccc(Cc3cc4c(cc3C)C(C)(C)CCC4(C)C)o2)c1 [Example B2, N′-(3,5-dimethylphenyl)-5-[(3,5,5,8,8-pentamethyl-5,6,7,8-tetrahydro-2-naphthalenyl)methyl]-2furohydrazide] here?
The Ki was 310 nM.

Which Ki does the source give for COc1c(Cl)c(C)c(Cl)c(C)c1Cc1ccc(C(=O)NNc2cc(C)c3c(C)nn(C)c3n2)o1 [Example J30, 5-(3,5-Dichloro-2-methoxy-4,6-dimethyl-benzyl)-furan-2-carboxylic acid N′-(1,3,4-trimethyl-1H-pyrazolo[3,4-b]pyridin-6-yl)-hydrazide] here?
Its Ki is 480 nM.

For Cc1nc2ccccc2c(Cl)c1Cc1ccc(C(=O)NNc2cc(C)c3c(C)nn(C)c3n2)o1 [Example K1, 5-(4-Chloro-2-methyl-quinolin-3-ylmethyl)-furan-2-carboxylic acid N′-(1,3,4-trimethyl-1H-pyrazolo[3,4-b]pyridin-6-yl)-hydrazide], which Ki is on record?
The Ki was 4430 nM.

For COc1cccc(OC)c1CNNC(=O)c1ccc(Cc2cc3c(cc2C)C(C)(C)CCC3(C)C)o1 [Example A2], which Ki is on record?
Its Ki is 700 nM.

With Cc1cc(NNC(=O)c2ccc(Oc3cc4c(cc3Cl)N(C)C(=O)CC4(C)C)o2)nc2c1c(C)nn2C [Example L2, 5-(7-Chloro-1,4,4-trimethyl-2-oxo-1,2,3,4-tetrahydro-quinolin-6-yloxy)-furan-2-carboxylic acid N′-(1,3,4-trimethyl-1H-pyrazolo[3,4-b]pyridin-6-yl)-hydrazide] as the compound, how does the Ki read?
The Ki was 5020 nM.

How did the Ki turn out when Cc1cc2c(cc1Cc1ccc(C(=O)NNc3ccccn3)o1)C(C)(C)CCC2(C)C [Example C10, 5-[(3,5,5,8,8-Pentamethyl-5,6,7,8-tetrahydro-2-napthalenyl)methyl]-N′-(2-pyridinyl)-2-furohydrazide] was run?
The Ki was 350 nM.

How did the Ki turn out when Cc1c(C)c(C)c(Cc2ccc(C(=O)NNc3cc(C)c4c(C)nn(C)c4n3)o2)c(C)c1C [Example J5, 5-(2,3,4,5,6-Pentamethylbenzyl)-N′-(1,3,4-trimethyl-1H-pyrazolo[3,4-b]pyridin-6-yl)-2-furohydrazide] was run?
Its Ki is 1400 nM.

How did the Ki turn out when COc1ccc(OC)c(Cc2ccc(C(=O)NNc3cc(C)c4c(C)nn(C)c4n3)o2)c1 [Example J6, 5-(2,5-Dimethoxy-benzyl)-furan-2-carboxylic acid N′-(1,3,4-trimethyl-1H-pyrazolo[3,4-b]pyridin-6-yl)-hydrazide] was run?
The Ki was 16100 nM.

Which Ki does the source give for COc1cc(OC)c(OC)cc1Cc1ccc(C(=O)NNc2cc(C)c3c(C)nn(C)c3n2)o1 [Example J14, 5-(2,4,5-trimethoxybenzyl)-N-(1,3,4-trimethyl-1H-pyrazolo[3,4-b]pyridin-6-yl)-2-furohydrazide] here?
The Ki was over 10000 nM.

How did the Ki turn out when Cc1cccc(C)c1SCc1ccc(C(=O)NNc2cc(C)c3c(C)nn(C)c3n2)o1 [Example J25, 5-{[(2,6-dimethylphenyl)sulfanyl]methyl}-N′-(1,3,4-trimethyl-1H-pyrazolo[3,4-b]pyridin-6-yl)-2-furohydrazide] was run?
The Ki was 1670 nM.

How did the Ki turn out when CCC(C)(C)c1ccc(OC)c(Cc2ccc(C(=O)NNc3cc(C)c4c(C)nn(C)c4n3)o2)c1 [Example J13, 5-[2-Methoxy-5-(tert-pentyl)benzyl]-N′-(1,3,4-trimethyl-1H-pyrazolo[3,4-b]pyridin-6-yl)-2-furohydrazide] was run?
The Ki was over 10000 nM.

Cc1cc(NNC(=O)c2ccc(Oc3cc4c(cc3Cl)NC(=O)CC4(C)C)o2)nc2c1c(C)nn2C [Example L1] was tested. Which Ki did it give?
Its Ki is 2110 nM.

How did the Ki turn out when COc1cc2c(cc1Cc1ccc(C(=O)NNc3nccc(NCC4CCCO4)n3)o1)C(C)(C)CCC2(C)C (stereo not drawn) [Example C7] was run?
The Ki was 1740 nM.

With COc1cc(OC)c(Cc2ccc(C(=O)NNc3cc(C)c4c(C)nn(C)c4n3)o2)c(OC)c1 [Example J10, 5-(2,4,6-trimethoxybenzyl)-N-(1,3,4-trimethyl-1H-pyrazolo[3,4-b]pyridin-6-yl)-2-furohydrazide] as the compound, how does the Ki read?
Its Ki is 1690 nM.

With Cc1cc2c(cc1Cc1ccc(C(=O)NNc3c(Cl)cncc3Cl)o1)C(C)(C)CCC2(C)C [Example C8, N′-(3,5-dichloro-4-pyridinyl)-5-[(3,5,5,8,8-pentamethyl-5,6,7,8-tetrahydro-2-naphthalenyl)methyl]-2-furohydrazide] as the compound, how does the Ki read?
The Ki was 410 nM.

How did the Ki turn out when Cc1cc2c(cc1Oc1ccc(C(=O)NNc3nc(N)nc(C4CC4)n3)o1)C(C)(C)CC2 [Example I13, N′-(4-Amino-6-cyclopropyl-1,3,5-triazin-2-yl)-5-[(3,3,6-trimethyl-2,3-dihydro-1H-inden-5-yl)oxy]-2-furohydrazide] was run?
Its Ki is 40 nM.

Which Ki does the source give for COc1ccc(OC)c(OC)c1Cc1ccc(C(=O)NNc2cc(C)c3c(C)nn(C)c3n2)o1 [Example J9, 5-(2,3,6-trimethoxybenzyl)-N′-(1,3,4-trimethyl-1H-pyrazolo[3,4-beta]pyridin-6-yl)-2-furohydrazide] here?
Its Ki is 4770 nM.

How did the Ki turn out when Cc1cc2c(cc1Cc1ccc(C(=O)NNc3ccc(C(F)(F)F)cn3)o1)C(C)(C)OC2(C)C [Example E5, 5-(1,1,3,3,6-Pentamethyl-1,3-dihydro-isobenzofuran-5-ylmethyl)-furan-2-carboxylic acid N′-(5-trifluoromethyl-pyridin-2-yl)-hydrazide] was run?
Its Ki is 390 nM.

CC(=O)N1CCC(C)(C)c2cc(Oc3ccc(C(=O)NNc4cc(C)c5c(C)nn(C)c5n4)o3)c(Cl)cc21 [Example I1, 5-(1-Acetyl-7-chloro-4,4-dimethyl-1,2,3,4-tetrahydro-quinolin-6-yloxy)-furan-2-carboxylic acid N′-(1,3,4-trimethyl-1H-pyrazolo[3,4-b]pyridin-6-yl)-hydrazide] was tested. Which Ki did it give?
Its Ki is 630 nM.

For Cc1cc2c(cc1Oc1ccc(C(=O)NNc3ccc(C(F)(F)F)cn3)o1)C(C)(C)OC2 [Example N4, 5-(3,3,6-Trimethyl-1,3-dihydro-isobenzofuran-5-yloxy)-furan-2-carboxylic acid N′-(5-trifluoromethyl-pyridin-2-yl)-hydrazide], which Ki is on record?
The Ki was 1500 nM.

How did the Ki turn out when Cc1cc2c(cc1Oc1ccc(C(=O)NNc3ccc(S(N)(=O)=O)cc3)o1)C(C)(C)CC2 [Example I14, 4-(2-{5-[(3,3,6-Trimethyl-2,3-dihydro-1H-inden-5-yl)oxy]-2-furoyl}hydrazino)benzenesulfonamide] was run?
Its Ki is 225 nM.

COc1cc(OC)c(CNNC(=O)c2ccc(Cc3cc4c(cc3C)C(C)(C)CCC4(C)C)o2)c(OC)c1 [Example A1, 5-[(3,5,5,8,8-Pentamethyl-5,6,7,8-tetrahydro-2-naphthalenyl)methyl]-N′-(2,4,6-trimethoxybenzyl)-2-furohydrazide] was tested. Which Ki did it give?
The Ki was 1840 nM.

Which Ki does the source give for Cc1cc2c(cc1Oc1ccc(C(=O)NNc3ncc(C(F)(F)F)cc3Cl)o1)C(C)(C)OC2 [Example N1, 5-(3,3,6-Trimethyl-1,3-dihydro-isobenzofuran-5-yloxy)-furan-2-carboxylic acid N′-(chloro-trifluoromethyl-pyridin-2-yl)-hydrazide] here?
The Ki was 1140 nM.

CC(=O)N(C)c1ccc(C)c(Oc2ccc(C(=O)NNc3cc(C)c4c(C)nn(C)c4n3)o2)c1 [Example I30, N-Methyl-N-(4-methyl-3-{5-[N′-(1,3,4-trimethyl-1H-pyrazolo[3,4-b]pyridin-6-yl)-hydrazinocarbonyl]-furan-2-yloxy}-phenyl)-acetamide] was tested. Which Ki did it give?
The Ki was 630 nM.
